The values that follow come from patent US20050032708A1, “Modulation of physiological processes and agents useful for same” (priority 2001, published 2005).

For data set [1] the following is noted: cited from earlier work.
Data set [2] in a line: Body weights and daily water consumption of rats receiving NAC in drinking water for 14 days. Type of data set: in vivo. As for the experimental part: (§1) Male Sprague Dawley rats (380-430 g) were obtained from Department of Pathology, University of Melbourne. On arrival rats were housed in pairs in a temperature-controlled (20-24° C.) colony room maintained on a 12 hr light-dark cycle (6 am-6 pm). Rats had continuous access to food and water (plain or treated) and were weighed on arrival and then daily from onset of experiment. Rats were allowed to adjust to the new environment for 3 days before starting the experiment.
(§2) This experiment consisted of 24 rats in total. Eight rats received plain drinking water (controls), 8 rats received 0.5% NAC (Sigma) in their drinking water (low dose) and 8 rats received 2% NAC in their drinking water (high dose). Drug treatment was administered for 14 consecutive days. Bottles were cleaned and fresh drug solution was made up on days 4, 8 and 11. Body weights and amount of drinking water consumed per box were measured on a daily basis. After 7 days of drug treatment, behavioural testing began and continued until day 14 of treatment.

Data set [3] deals with Male Sprague Dawley rats. Kind of data set: Effect of amphetamine on locomotor activity of rats receiving NAC in drinking water. The data set is classed as in vivo. As for the experimental part:
as §1, §2
Locomotor activity was assessed in 8 automated photo cell cages, data being collected in 5-min intervals. Animals were placed individually in cages and baseline activity was measured during the first 30 minutes. After 30 minutes rats received a subcutaneous injection of either saline (vehicle), 0.5 mg/kg or 5 mg/kg amphetamine and locomotor activity was measured for a further 90 minutes. Drug treatment and time of day of the experiment were both randomised (see table 1). Each rat received 3 locomotor sessions in total. A period of 3 days was allowed between locomotor experiments to ensure complete elimination of amphetamine.
Locomotor hyperactivity was obtained as total distance moved per 30 min, i.e. before injection and 0-30 min, 30-60 min and 60-90 min after injection. In order to account for slight variations in baseline activity, post-injection behaviour was expressed a change of baseline activity. Average data for rats receiving water, 0.5% NAC, or 2% NAC was compared using analysis of variance for repeated measures (ANOVA) using the Systat 9.0 software package.

Data set [4] concerns humans. Particulars: cited from earlier work.
Setting [5] is: 600-1200 mg/day for three weeks, Ziegler and Gries, 1997.

Each structure is given as a SMILES string. Entries after “also recorded” stand apart in the source; their conditions may differ.

As for `O=C(O)CCCCC1CCSS1` (stereo not drawn) [Alpha-lipoic Acid], in data set [1] (setting [5]), the “Symptoms of diabetic neuropathy” value is on record as “reproducibly demonstrated benefit” and the Tolerability result is reported as “tolerated with no adverse effects”.

Consider `CC(=O)N[C@@H](CS)C(=O)O` [NAC, N-acetyl cysteine], for which the “Average daily water consumption per box” value in data set [2] (0.5% NAC in drinking water (low dose), 14 days of treatment, control rats 77-90 ml) lay within 60 to 72 mL. In addition, in data set [2] (2% NAC in drinking water (high dose), 14 days), the “Body weight over the treatment period compared with controls” value was “marked decrease in body weight”. The “Interaction of treatment x time, 5 mg/kg of amphetamine, vs controls (significant or not)” value in data set [3] (0.5% NAC) is given as “not”. In addition, the “Overall effect of 0.5 mg/kg of amphetamine on locomotor activity vs water controls” value in data set [3] (0.5% NAC in drinking water, F(1,14)=5.11, P=0.04) is “tended to be greater”; in data set [3] (2% NAC in drinking water, F(1,13)=4.3, P=0.06), “tended to be greater”. In addition, the “Baseline locomotor activity before injection, averaged over three sessions, vs water controls” value in data set [3] (0.5% or 2% NAC in drinking water, difference did not reach statistical significance) is reported as “tended to be lower”. Moreover, the “Duration of locomotor hyperactivity after 5 mg/kg of amphetamine” value in data set [3] (2% NAC) was “maintained longer than in controls; also recorded: prolonged effect”. For the same compound, the “Overall effect of 5 mg/kg of amphetamine on locomotor activity vs controls” value in data set [3] (2% NAC to drink, failed to reach overall statistical significance) was “tended to be greater”. In addition, in data set [3] (2% NAC, F(2,28)=4.9, P=0.024), the “Interaction of treatment x time, 5 mg/kg of amphetamine, vs controls” value is “significant”. The “Maximal effect of 0.5 mg/kg of amphetamine on locomotor activity vs water controls” value in data set [3] (30-60 min after injection, either NAC dose (0.5% or 2%), 0.5 mg/kg) is listed as “significantly greater; also recorded: greater maximal effect”. Further, in data set [4] (dose of 3 g/day (4 capsules, 2 bid)), the Plasma cystine levels result is “sustains elevated plasma cystine levels”. Further, in data set [4] (human, Louwerse et al., 1995), the “Human dosing without adverse effects” value was “up to 5 g/day”.

`C[Se]CC[C@H](N)C(=O)O` [Selenomethionione]: in data set [1] (200 ug, one per day), the “Adverse effects of long-term dose” value is given as “no known adverse effects”.

As for `O=C1O[C@H]([C@@H](O)CO)C(O)=C1O` [Vitamin C], the “Elevation of plasma levels” value in data set [1] (500 mg daily) is reported as 60%.

In the case of `Cc1c(C)c2c(c(C)c1O)CC[C@@](C)(CCC[C@H](C)CCC[C@H](C)CCCC(C)C)O2` [alpha-tocopherol], in data set [1] (400 IU), the Adverse effects result was “without causing adverse effects” and the CSF levels result is listed as “sufficient to increase CSF levels”. For the same compound, the “Doses that may cause coagulopathies and can be a source of radicals” value in data set [1] (Bowry et al., 1995) was “higher than 2000 IU/day”.

For `CC(N)Cc1ccccc1` (stereo not drawn) [amphetamine], the “Locomotor activity after subcutaneous injection of amphetamine” value in data set [3] (0.5 mg/kg of amphetamine, 90 min after injection) was “induced a behavioural hyperactivity”; in data set [3] (5 mg/kg of amphetamine, activity fell to low levels later in the 90 min observation period), “initially induced marked behavioural hyperactivity”.
